A short description of one series: physchem. The text has this: The use of thermo-reversible triblock gels (Pluronics) as delivery agents for anti-inflammatories (naproxen and indomethacin), local anesthetics, and anti-cancer agents has been studied (Sharma, P. K. and Bhatia, S. R. Effect of Anti-Inflammatories on Pluronic® F127: Micellar Assembly, Gelation and Partitioning. Int J Pharmaceutics, in press, 2004). An ultraviolet spectroscopy technique has been developed to measure rapidly the solubility and micelle-water partition coefficients of hydrophobic pharmaceuticals in micellar gels and has been applied to PLA-PEO-PLA hydrogels. In addition to evaluating partitioning, release kinetics in PLA-PEO-PLA systems have also been studied.

Series [1] is described as follows: Release kinetics of pharmaceuticals from PLA-PEO-PLA gels at 25° C. The following applies: both polymers (1L and 2D/L), FIG. 7A. In kind it is physicochemical.
For series [2] the following is noted: cited from earlier work.

Each structure is given as a SMILES string. Values after ≈ are worked out from the molar mass of the structure shown. Structures can show the parent of a compound that is named as a salt.

For `COc1ccc2c(c1)c(CC(=O)O)c(C)n2C(=O)c1ccc(Cl)cc1` [Indomethacin, indomethacin], the micelle-water partition coefficient in the series “physchem” amounted to 108±8. In addition, the solubility (usually the concentration that dissolves in the medium under given conditions) in the series “physchem” (water) was 25 µg/mL (≈ 69.9 µM).

Take `COC(=O)c1ccc(O)cc1` [methyl paraben]: in series [1], the “release of methyl paraben from PLA-PEO-PLA gels” value is “majority of the methyl paraben being quickly released within the first five hours”.

Turning to `CC1=C(CC(=O)O)c2cc(F)ccc2/C1=C\c1ccc([S+](C)[O-])cc1` (centres unmarked) [sulindac], the “time of complete release” value in series [2] (from poly(styrene-divinylbenzene) microspheres) is 24 h.

With `CCCCNc1ccc(C(=O)OCCN(C)C)cc1` [tetracaine hydrochloride], the release behavior result in series [2] (from poly(DL-lactic-co-glycolic acid)) is given as “burst release”.

The record behind these values is patent US20060018872A1, “Poly(lactic acid) copolymer hydrogels and related methods of drug delivery” (priority 2004, published 2006).
